{
  "source": "paper PMC5430962",
  "about": "“Retro-inverso Urokinase Receptor Antagonists for the Treatment of Metastatic Sarcomas” (Scientific Reports, 2017)",
  "key": {"[1]": {"test": "Stability in bovine serum, read out as inhibition of HT1080 migration (xCELLigence)", "type": "in vitro ADME", "conditions": "pre-incubated at 10^−3 M in bovine serum 18 hr at 37 °C, tested at 10 nM on HT1080 migration 18 hr, quadruplicate", "protocol": "(§1) A major limitation of peptides for use as therapeutics is susceptibility to degradation by serum proteases. The stability of RI-3 in bovine and human serum was investigated by comparing inhibitory activities of RI-3 and RI-3 pre-incubated at 10^−3 M with serum for 18 hr at 37 °C on cell migration and invasion. HT1080 cells were allowed to migrate for 18 hr toward DMEM (CTRL), 10% FBS (None), 10% FBS plus 10 nM RI-3 or 10% FBS with 10 nM RI-3 pre-incubated in bovine serum. […] The stability of RI-3 in human serum was investigated in cell invasion experiments performed in Boyden chambers. […]\n(§2) (a) HT1080 cells were allowed to migrate in real time for 18 hr toward DMEM (CTRL), or 10% FBS in the absence (None) or the presence of 10 nM RI-3 or 10 nM RI-3 pre-incubated at 10^−3 M in bovine serum for 18 hr at 37 °C. […] The basal value assessed in the absence of FBS (CTRL) was taken as 100% and all values were reported relative to that. Data are the means ± SD three independent experiments, performed in triplicate. *Indicates statistical significance calculated against None, with *P < 0.05, **P < 0.0001. (c) Cell proliferation of HT1080 cells assessed by MTS assay. […] At the indicated times, the absorbance of adherent cells was assessed with a microplate reader. […]"}, "[2]": {"test": "Stability in human serum, read out as retained inhibition of HT1080 matrigel invasion", "type": "in vitro ADME", "conditions": "pre-incubated at 10^−3 M in human serum 18 hr at 37 °C; tested at 10 nM on HT1080 matrigel invasion, Boyden chambers, 6 hr; three experiments in triplicate", "protocol": "as §1, §2"}, "[3]": {"system": "HUVECs", "test": "Endothelial cell tube formation on matrigel", "type": "cell-based, human", "conditions": "10 nM, three experiments in duplicate", "protocol": "The formation of vascular-like structures was assessed on a matrigel basement membrane matrix preparation. HUVEC (4 × 10^4 cells/well) were suspended in 300 µl pre-warmed serum-free medium. Diluents or effectors were added to the cell suspension prior to seeding cells on polymerized growth factor-reduced matrigel (100 µl/well) (Becton Dickinson). Assays were carried out for 6 hr at 37 °C in humidified air with 5% CO2 as described. To quantify tube formation, five random areas/well at 100× magnification were imaged and the number of tubes formed by cord-like structures exceeding 100 μm in length, measured using Axiovision 4.4 software (Carl Zeiss), were counted. The experiments were performed three times in duplicate."}, "[4]": {"system": "Fgr(Y412)", "test": "Phospho-kinase array, RBL-2H3/ETFR cells", "type": "cell-based, rat", "conditions": "10 nM fMLF plus 10 nM peptide, 10 min", "protocol": "(§3) RBL-2H3/ETFR grown to semi-confluence, were exposed to DMEM alone, 10 nM fMLF with/without 10 nM RI-3 at 37 °C in humidified air with 5% CO2. At the indicated times, cells were lysed in RIPA buffer and cell lysate protein content was measured by a colorimetric assay. Western blot analysis of AKT phosphorylation was performed as previously described using anti-phospho-Akt (Ser473) (pAKT) Ab (Cell Signaling) and anti-Akt mAb (R&D System). The effects of fMLF with/without 10 nM RI-3 were analyzed at the level of global kinase phosphorylation, using the dot-blot Proteome Profiler^TM Array Human PhosphoKinase Array Kit (R&D Systems), according to manufacturer’s instructions. Briefly, 300 µg of protein were applied on each membrane and the signals were detected as described for Western blot. The pixel density of each spot was measured using NIH Image 1.62 software. The intensity of positive control spots was used to normalize results between the four membranes. The intensity for each spot was then averaged over the duplicate spots."}, "[5]": {"system": "ERK1/2(T202/Y204/T185/Y187)", "test": "Phospho-kinase array, RBL-2H3/ETFR cells", "type": "cell-based, rat", "conditions": "10 nM fMLF plus 10 nM peptide, 10 min", "protocol": "as §3"}, "[6]": {"system": "osteosarcoma Saos-2 cells", "test": "Matrigel invasion kinetics, xCELLigence RTCA, Saos-2", "type": "cell-based, human", "conditions": "Saos-2, 10 nM, 10% FBS, 20 hr", "protocol": "This assay was performed using E-well plates and the xCELLigence RTCA technology as described. Bottom wells were coated with 20 µg/well matrigel diluted in serum free medium. Matrigel was allowed to polymerize for 1 hr at 37 °C prior to seeding cells (1 × 10^4 cells/well) suspended in growth medium plus/minus RI peptides. Cells that cross matrigel adhere to the bottom of plates causing impedance changes that are proportional to the number of invading cells, and are expressed as a cell index value. Matrigel invasion was monitored for 20 hr. The experiments were performed three times in quadruplicate."}},
  "note": "[ ]: non-standard residue; d: D form. Aib = CC(C)(N)C(=O)O",
  "data": [
    {"substance": "Ac-[dY][dR][Aib][dR]-NH2 (SMILES CC(=O)N[C@H](Cc1ccc(O)cc1)C(=O)N[C@H](CCCNC(=N)N)C(=O)NC(C)(C)C(=O)N[C@H](CCCNC(=N)N)C(N)=O) [RI-3]", "values": [
      {"measurement": "cell index curves of migrating cells, peptide vs peptide pre-incubated in bovine serum", "setting": "[1]", "result": "overlapping curves"},
      {"measurement": "inhibitory activity retained after pre-incubation with human serum", "setting": "[2]", "result": 81, "unit": "%"},
      {"measurement": "reduction of VEGF-dependent endothelial capillary-like structures", "setting": "[3]; EBM plus 40 ng/mL VEGF165, 6 hr on matrigel", "result": 75, "unit": "%"},
      {"measurement": "reduction of FBS-dependent endothelial capillary-like structures", "setting": "[3]; EBM plus 10% FBS, 6 hr on matrigel", "result": 61, "unit": "%"},
      {"measurement": "reduction in fMLF-dependent phosphorylation of Fgr(Y412)", "setting": "[4]", "result": 43, "unit": "%"},
      {"measurement": "reduction in fMLF-dependent phosphorylation of ERK1/2(T202/Y204/T185/Y187)", "setting": "[5]", "result": 25, "unit": "%"},
      {"measurement": "reduction of matrigel invasion (slope of cell index)", "setting": "[6]", "result": 24, "unit": "%"}
    ]}
  ]
}
